From patent US8030300B2, “Ligands for nicotinic acetylcholine receptors, and methods of making and using them” (priority 2003, dated 2011)
Read-outs that look alike come from different tables or passages of the source.

Assays:
Assay in all cases: biochemical
Format in all cases: binding
[1] = target: T1, α4β2 nAChR subtype (Rattus norvegicus, UniProt P09483+P12390)
T1 construct: expressed in transfected cells
Description: (§1) In order to assess the steric and hydropathic effects of the C-5 substituents of the pyridine on the binding affinity and subtype-selectivity at neuronal nicotinic acetylcholine receptors. […] The binding affinity ratios for a ligand, calculated from its affinities at an α subunit paired with either the β2 osubunit or the β4 subunit, represents a measure of the selectivity of that ligand with regard to the β subunits.

[2] = target: T2, α3β2 nAChR subtype (Rattus norvegicus, UniProt P04757+P12390)
T2 construct: expressed in transfected cells
Description: as §1

[3] = target: T3, α4β4 nAChR subtype (Rattus norvegicus, UniProt P09483+P12392)
T3 construct: expressed in transfected cells
Description: as §1

[4] = target: T4, α2β4 nAChR subtype (Rattus norvegicus, UniProt P12389+P12392)
T4 construct: expressed in transfected cells
Description: as §1

[5] = target: T5, α2β2 nAChR subtype (Rattus norvegicus, UniProt P12389+P12390)
T5 construct: expressed in transfected cells
Description: as §1

[6] = target: T6, α3β4 nAChR subtype (Rattus norvegicus, UniProt P04757+P12392)
T6 construct: expressed in transfected cells
Description: as §1

[7] = target: T7, receptors in rat forebrain (mainly α4β2) (Rattus norvegicus, UniProt P09483+P12390)
T7 construct: from tissue; host or cells: rat forebrain homogenate
Description: as §1
In Vitro Inhibition of ^3H-Epibatidin Binding
The high affinity binding site for ^3H-epibatidin is most certainly binding to the α4β2 subtype of nicotinic receptors. The identity of the low affinity site is still believed to be unknown.
Tissue preparation: Preparations may be performed at 0-4° C. unless otherwise indicated. […] The tissue suspension may then be centrifuged at 27,000×g for 10 min. The supernatant is then discarded and the pellet may then be washed three times by centrifugation at 27,000×g for 10 min in 20 mL fresh buffer, and the final pellet may be resuspended in fresh buffer (400 mL per g of original tissue) and used for binding assays.
Assay: Aliquots of 2.0 mL homogenate may be added to 0.100 mL of test solution and 0.100 mL of ^3H-epibatidin (0.3 nM, final concentration), mixed and incubated for 60 min at room temperature. […] The amount of radioactivity on the filters may be determined by conventional liquid scintillation counting. Specific binding is total binding minus non-specific binding.

[8] = Ki α4β2, Table 5, rat nAChR subtypes
[9] = Ki α3β2, Table 5, rat nAChR subtypes
[10] = Ki α4β4, Table 5, rat nAChR subtypes
[11] = Ki α2β4, Table 5, rat nAChR subtypes
[12] = Ki α2β2, Table 5, rat nAChR subtypes
[13] = Ki α3β4, Table 5, rat nAChR subtypes
[14] = Ki α4β2*, Table 5, *Rat forebrain, mainly α4β2

T6 sequence (P04757 26-499): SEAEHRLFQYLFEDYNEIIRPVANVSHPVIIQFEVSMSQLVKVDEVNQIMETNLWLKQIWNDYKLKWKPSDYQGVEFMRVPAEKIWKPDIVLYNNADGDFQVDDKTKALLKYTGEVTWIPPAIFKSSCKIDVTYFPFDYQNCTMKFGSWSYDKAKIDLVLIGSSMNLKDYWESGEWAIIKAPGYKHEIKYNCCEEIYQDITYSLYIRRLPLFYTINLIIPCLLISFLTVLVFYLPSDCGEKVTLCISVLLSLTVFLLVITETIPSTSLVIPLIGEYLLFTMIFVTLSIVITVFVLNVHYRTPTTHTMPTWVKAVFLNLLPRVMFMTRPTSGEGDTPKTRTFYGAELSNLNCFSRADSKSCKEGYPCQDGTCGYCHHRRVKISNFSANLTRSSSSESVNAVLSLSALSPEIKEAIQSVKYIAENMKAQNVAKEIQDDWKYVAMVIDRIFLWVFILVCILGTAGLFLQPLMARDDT
T6 sequence (P12392 21-495): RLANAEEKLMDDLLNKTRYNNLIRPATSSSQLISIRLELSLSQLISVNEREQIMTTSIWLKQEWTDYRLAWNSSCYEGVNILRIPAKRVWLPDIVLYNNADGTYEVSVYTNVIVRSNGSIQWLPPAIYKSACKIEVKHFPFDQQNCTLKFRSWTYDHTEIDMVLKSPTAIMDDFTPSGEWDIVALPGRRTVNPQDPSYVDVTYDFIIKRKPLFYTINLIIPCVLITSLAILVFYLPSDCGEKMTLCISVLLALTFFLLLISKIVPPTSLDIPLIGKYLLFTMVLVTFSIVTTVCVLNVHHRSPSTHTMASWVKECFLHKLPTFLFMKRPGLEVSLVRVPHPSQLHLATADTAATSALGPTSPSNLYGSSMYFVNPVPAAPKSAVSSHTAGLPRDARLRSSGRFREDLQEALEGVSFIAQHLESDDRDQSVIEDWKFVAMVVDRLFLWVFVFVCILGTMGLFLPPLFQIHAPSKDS
T3 sequence (P12392 21-495): as above
T3 sequence (P09483 31-630): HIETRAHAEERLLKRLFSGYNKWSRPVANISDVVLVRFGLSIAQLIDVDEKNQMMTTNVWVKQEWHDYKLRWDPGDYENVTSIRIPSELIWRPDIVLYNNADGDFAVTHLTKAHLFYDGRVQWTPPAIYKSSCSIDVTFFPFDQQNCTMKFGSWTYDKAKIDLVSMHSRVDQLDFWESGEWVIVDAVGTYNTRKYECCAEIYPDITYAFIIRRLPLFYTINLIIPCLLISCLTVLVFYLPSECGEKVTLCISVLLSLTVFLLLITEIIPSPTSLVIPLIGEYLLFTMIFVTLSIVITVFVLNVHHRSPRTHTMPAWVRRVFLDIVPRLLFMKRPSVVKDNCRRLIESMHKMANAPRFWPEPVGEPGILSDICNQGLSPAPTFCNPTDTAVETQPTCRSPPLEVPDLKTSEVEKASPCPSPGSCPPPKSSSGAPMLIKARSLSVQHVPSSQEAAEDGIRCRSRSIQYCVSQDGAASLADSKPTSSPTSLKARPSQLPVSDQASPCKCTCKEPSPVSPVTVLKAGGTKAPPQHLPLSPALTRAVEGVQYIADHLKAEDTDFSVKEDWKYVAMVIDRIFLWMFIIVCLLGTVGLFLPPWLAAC
T4 sequence (P12389 28-511): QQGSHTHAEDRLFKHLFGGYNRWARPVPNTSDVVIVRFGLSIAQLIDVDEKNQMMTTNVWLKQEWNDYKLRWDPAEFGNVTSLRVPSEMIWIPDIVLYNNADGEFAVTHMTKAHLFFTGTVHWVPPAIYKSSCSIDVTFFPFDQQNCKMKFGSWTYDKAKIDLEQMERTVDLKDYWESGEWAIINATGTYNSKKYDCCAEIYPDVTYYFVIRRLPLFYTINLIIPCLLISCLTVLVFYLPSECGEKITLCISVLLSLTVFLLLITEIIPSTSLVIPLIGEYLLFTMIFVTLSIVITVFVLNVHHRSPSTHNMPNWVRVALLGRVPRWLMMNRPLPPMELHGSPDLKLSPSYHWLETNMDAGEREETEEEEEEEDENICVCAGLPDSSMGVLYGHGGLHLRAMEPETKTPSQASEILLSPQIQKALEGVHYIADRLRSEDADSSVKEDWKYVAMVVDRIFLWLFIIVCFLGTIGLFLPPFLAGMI
T4 sequence (P12392 21-495): as the sequence (P12392 21-495) above
T7 sequence (P09483 31-630): as the sequence (P09483 31-630) above
T7 sequence (P12390 25-500): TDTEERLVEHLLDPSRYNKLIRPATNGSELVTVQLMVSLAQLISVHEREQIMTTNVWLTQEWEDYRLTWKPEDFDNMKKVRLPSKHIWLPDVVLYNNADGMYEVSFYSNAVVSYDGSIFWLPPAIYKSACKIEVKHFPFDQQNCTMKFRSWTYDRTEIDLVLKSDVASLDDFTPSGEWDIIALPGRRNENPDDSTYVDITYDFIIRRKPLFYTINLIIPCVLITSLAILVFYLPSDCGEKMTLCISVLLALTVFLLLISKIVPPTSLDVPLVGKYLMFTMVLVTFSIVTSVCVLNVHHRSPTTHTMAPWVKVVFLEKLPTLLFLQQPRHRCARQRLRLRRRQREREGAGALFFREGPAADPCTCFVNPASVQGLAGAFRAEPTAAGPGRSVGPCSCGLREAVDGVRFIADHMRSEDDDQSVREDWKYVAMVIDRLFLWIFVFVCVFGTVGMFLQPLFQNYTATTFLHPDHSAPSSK
T2 sequence (P12390 25-500): as above
T2 sequence (P04757 26-499): as the sequence (P04757 26-499) above
T5 sequence (P12390 25-500): as the sequence (P12390 25-500) above
T5 sequence (P12389 28-511): as the sequence (P12389 28-511) above
T1 sequence (P12390 25-500): as the sequence (P12390 25-500) above
T1 sequence (P09483 31-630): as the sequence (P09483 31-630) above

Row | SMILES | Ki [1, 8] [nM] | Ki [2, 9] [nM] | Ki [3, 10] [nM] | Ki [4, 11] [nM] | Ki [5, 12] [nM] | Ki [6, 13] [nM] | Ki [7, 14] [nM] | other results
1 | O=c1cccc2n1C[C@H]1C[C@@H]2CN(CCCCCN2C[C@@H]3C[C@H](C2)c2cccc(=O)n2C3)C1 [ZW-19] |  |  |  |  |  |  |  | Ki [1]: 383 nM; Ki [2]: > 1000 nM; Ki [3]: 468 nM; Ki [4]: 1430 nM; Ki [5]: 240 nM; Ki [6]: > 10000 nM; Ki [7]: 603 nM
2 | OC1C2CCC(N2)C1c1ccc(Cl)nc1 (single isomer, unassigned) [Ligand 2] | 2370 | 1130 | 515 | 617 | 814 | 1170 | 2060 | 
3 | CCCCCc1cncc(C2CC3CCC2N3)c1 (stereo not drawn) [ZW-95] | 0.151 | 0.165 | 7.91 | 24.9 | 0.323 | 122 | 0.314 | 
4 | O[C@H]1C[C@H]2C[C@H](c3ccc(Cl)nc3)[C@@H]1N2 (relative stereo) [Ligand 9, 2-exo-(2-Chloro-5-pyridyl)-6-endo-hydroxyl-7-azabicyclo[2.2.1]heptane] | 0.916 | 1.36 | 5.57 | 5.85 | 1.53 | 27.3 | 4.11 | 
5 | O=c1cccc2n1C[C@H]1C[C@@H]2CN(CCCCl)C1 [ZW-16] |  |  |  |  |  |  |  | Ki [1]: 571 nM; Ki [2]: > 1000 nM; Ki [3]: 732 nM; Ki [4]: 2630 nM; Ki [5]: 1340 nM; Ki [6]: > 10000 nM; Ki [7]: 1500 nM
6 | Clc1ccc(C2CC3CCC2N3CCN2C3CCC2CC3)cn1 (stereo not drawn) [ZW-84] | 21.9 | 21.1 | 84.5 | 16.6 | 7.08 | 67.6 | 112 | 
7 | Clc1ccc(C2CC3CCC2N3CCCN2C3CCC2C(c2ccc(Cl)nc2)C3)cn1 (stereo not drawn) [Ligand 59b, Propane-1,3-N,N′-bisepibatidine] |  |  |  |  |  |  |  | Ki ([1]; Table 5, rat nAChR subtypes, read-out: Ki α4β2): 8.66 nM; Ki ([2]; Table 5, rat nAChR subtypes, read-out: Ki α3β2): 5.17 nM; Ki ([3]; Table 5, rat nAChR subtypes, read-out: Ki α4β4): 23.3 nM; Ki ([4]; Table 5, rat nAChR subtypes, read-out: Ki α2β4): 15.7 nM; Ki ([5]; Table 5, rat nAChR subtypes, read-out: Ki α2β2): 6.08 nM; Ki ([6]; Table 5, rat nAChR subtypes, read-out: Ki α3β4): 62.9 nM; Ki ([7]; Table 5, *Rat forebrain, mainly α4β2, read-out: Ki α4β2*): 10.1 nM
8 | FC1CC2CC(c3ccc(Cl)nc3)C1N2 (stereo not drawn) [Ligand 11, 2-exo-(2-Chloro-5-pyridyl)-6-fluoro-7-azabicyclo[2.2.1]heptane] | 0.328 | 0.149 | 0.172 | 0.481 | 0.218 | 2.48 | 0.668 | 
9 | COC(=O)c1nc(Cl)ccc1C1CC2CCC1N2 (stereo not drawn) [ZW-96] | 7870 | 5510 | 46500 | 28100 | 5410 | 10700 | 18400 | 
10 | CN1CCC[C@H]1COc1cncc(CCCCCCO)c1 [Ligand 19] |  |  |  |  |  |  |  | Ki ([1]; Ki α4β2, Table 1, mean of 3 (1, 2: 3 to 6) independent measurements): 0.75 nM; Ki [2]: 13.4 nM; Ki [3]: 968 nM; Ki [4]: 1150 nM; Ki [5]: 3.33 nM; Ki ([6]; Ki α3β4, Table 1, mean of 3 (1, 2: 3 to 6) independent measurements): 20000 nM; Ki [7]: 5.39 nM
11 | FCCCCC#Cc1cncc(OC[C@@H]2CCCN2)c1 [Ligand 42, 5-(6-Fluoro-1-hexynyl)-3-(2(S)-pyrrolidinylmethoxy)pyridine] | 0.907 | 5.27 | 721 | 680 | 3.5 | 7580 | 3.45 | 
12 | O=C1CC2CC(c3ccc(Cl)nc3)C1N2 (stereo not drawn) [Ligand 5, 2-exo-(2-Chloro-5-pyridyl)-7-azabicyclo[2.2.1]heptan-6-one] | 2020 | 1500 | 3560 | 3240 | 1010 | 8870 | 1350 | 
